Measurements from the supplement of paper PMC11616607.

Tests used:
Experiment in all cases: drug sensitivity score (DSS) from 5-point dose-response viability curve (DSS (area-under-curve based score)); higher = more sensitive (stronger growth inhibition or killing); extreme values may be limits of the assay
Conditions in all cases: exposure time: 72 h; concentration range: 5 concentrations over 10,000-fold range
HOSE1C = system: HOSE1C
Outline: (§1)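 Ovarian cancer and normal ovarian cell lines were tested in 384-well plates. Drugs were acoustically dispensed (Echo 550) in DMSO or water at five concentrations spanning a 10,000-fold range, then 1,500 cells per well were added and incubated 3 days at 37°C, 5% CO2. Viability was read by CellTiter-Glo luminescence on a PHERAstar FS. Drug sensitivity score was derived per cell line and drug with Breeze software; higher means more sensitive, zero means no response.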

Ovsaho = system: Ovsaho
Outline: as §1

Kuramochi = system: Kuramochi
Outline: as §1

OV90 = system: OV90
Outline: as §1

COV318 = system: COV318
Outline: as §1

CAOV3 = system: CAOV3
Outline: as §1

COV362 = system: COV362
Outline: as §1

HOSE2C = system: HOSE2C
Outline: as §1

OVCAR5 = system: OVCAR5
Outline: as §1

OVCAR8 = system: OVCAR8
Outline: as §1

OVCAR4 = system: OVCAR4
Outline: as §1

JHOS2 = system: JHOS2
Outline: as §1

| SMILES | drug sensitivity score (HOSE1C) | drug sensitivity score (Ovsaho) | drug sensitivity score (Kuramochi) | drug sensitivity score (OV90) | drug sensitivity score (COV318) | drug sensitivity score (CAOV3) | drug sensitivity score (COV362) | drug sensitivity score (HOSE2C) | drug sensitivity score (OVCAR5) | drug sensitivity score (OVCAR8) | drug sensitivity score (OVCAR4) | drug sensitivity score (JHOS2) |
| --- | --- | --- | --- | --- | --- | --- | --- | --- | --- | --- | --- | --- |
| CO[C@@]12[C@H](COC(N)=O)C3=C(C(=O)C(C)=C(N)C3=O)N1C[C@@H]1N[C@@H]12 [Mitomycin C] | 0 | 0 | 0 | 0.9 | 0 | 4.7 | 0 | 0 | 0 | 0 | 0 | 0 |
| Cc1cc([C@@H](C)Nc2ccccc2C(=O)O)c2nc(N3CCOCC3)cc(=O)n2c1 [AZD-6482] | 0.3 | 7.6 | 6 | 0 | 0.1 | 2.3 | 0 | 1.2 | 0.1 | 0.7 | 1.6 | 0 |
| C[C@H](Nc1ncnc2[nH]cnc12)c1cc2ccc(F)cc2nc1-c1ccccn1 [AMG319] | 0 | 1.2 | 1.1 | 0 | 0.1 | 0 | 0 | 0 | 0 | 0 | 0.7 | 0 |
| COc1cccc(-c2ccc(NC(=O)C3=C(C(=O)O)CCC3)c(F)c2)c1 [Vidofludimus] | 6 | 0.2 | 0 | 0 | 0 | 0 | 0 | 3.9 | 0 | 2.1 | 0 | 0.1 |
| COc1cc2c(Nc3ccc(Cl)c(Cl)c3F)ncnc2cc1OC[C@@H]1C[C@@H]2CN(C)C[C@@H]2C1 [Tesevatinib] | 1.6 | 2.2 | 1.2 | 0 | 0 | 8.4 | 0.9 | 0 | 5 | 1.3 | 1.6 | 0.1 |
| COc1cc2nccc(Oc3ccc(NC(=O)Nc4cc(C)on4)c(Cl)c3)c2cc1OC [Tivozanib] | 2.4 | 0.1 | 1.7 | 5.6 | 0.6 | 1.8 | 0 | 6.8 | 4 | 2.6 | 2.3 | 0.2 |
| CCNC(=O)c1noc(-c2cc(C(C)C)c(O)cc2O)c1-c1ccc(CN2CCOCC2)cc1 [Luminespib] | 23.1 | 8.7 | 14.4 | 17.2 | 11.6 | 16.8 | 13.8 | 23 | 15.2 | 18.8 | 9.8 | 18.8 |
